Test results taken from patent US20090137579A1, “Mesylate salt of an IKK inhibitor” (Millennium Pharmaceuticals, Inc., priority 2007, published 2009).
≈ marks a conversion by molar mass, not a printed value. Counter-ions that a name gives are not always drawn. Like-named read-outs stand apart in the source and are kept apart here.

Assays:
[1] = Water solubility (equilibrium solubility at ambient temperature); type: physicochemical
Method: The water solubility of Mesylate Salt Form 1 was measured at ambient temperature. Table 6 is a summary of the equilibrium solubility.

[2] = Gravimetric vapor sorption (GVS), hygroscopicity; type: physicochemical
Method: Gravimetric vapor sorption (GVS) data are collected using a SGA-100 Water Vapor Sorption Analyzer from VTI Corporation. Sample sizes are typically 10 mg. A moisture adsorption/desorption isotherm is recorded by subjecting samples to a series of relative humidity (RH) steps.

| Structure (SMILES) | solubility ([1]; in water, crystalline free base, read-out: solubility) [µg/mL] | solubility ([1]; water, free base, read-out: intrinsic solubility) [µg/mL] | solubility ([1]; pH 2.52, thermodynamic from solid, water, ambient temperature, equilibrium solubility, read-out: Solubility) [µg/mL] | pH ([1]; pH printed beside the equilibrium water solubility) | solubility ([1]; thermodynamic from solid, in water, crystalline Form 1, read-out: solubility) [µg/mL] | uptake (vapor sorption) ([2]; at 70% relative humidity (RH)) [%] | uptake (vapor sorption) ([2]; at 90% RH) [%] |
| --- | --- | --- | --- | --- | --- | --- | --- |
| C[C@@H]1CN(C(=O)CN2CC(C)(C)OC[C@H]2C(=O)Nc2cc(Cl)cc3c2[nH]c2cnccc23)C[C@H](C)O1 [free base, (S)—N-(6-chloro-9H-pyrido[3,4-b]indol-8-yl)-4-(2-((2S,6R)-2,6-dimethylmorpholino)-2-oxoethyl)-6,6-dimethylmorpholine-3-carboxamide] | ~10 (≈ 19.5 µM) | ~10 (≈ 19.5 µM) | – | – | – | – | – |
| C[C@@H]1CN(C(=O)CN2CC(C)(C)OC[C@H]2C(=O)Nc2cc(Cl)cc3c2[nH]c2cnccc23)C[C@H](C)O1 [Mesylate Form 1, (S)—N-(6-chloro-9H-pyrido[3,4-b]indol-8-yl)-4-(2-((2S,6R)-2,6-dimethylmorpholino)-2-oxoethyl)-6,6-dimethylmorpholine-3-carboxamide Mesylate Form 1] | – | – | > 360000 | 2.52 | > 360000 | 1.5 | 3.4 |
